Reference: patent US6297230A, “Cyanoaziridines for treating cancer” (priority 2000, dated 2001)
Converted amounts (≈) assume the structure as drawn. Read-outs that look alike come from different tables or passages of the source.

How the values were obtained:
[1] = test system: L-1210 leukemia cells (sensitive); assay: MTT growth inhibition, sensitive L-1210 leukemia cells; type: cell-based, mouse; conditions: Sensitive L-1210, drug continuously present 8 days
Protocol: Tumors are disaggregated into single cell suspensions using mechanical, hypoosmotic, and/or enzymatic (trypsin) methods. The cells are plated at a concentration of 3-5×10^4 per […] well into plastic 96-well plates. Growth medium containing 5-10% (vol/vol) heat-inactivated fetal bovine serum and penicillin/streptomycin (both […]) are added prior to incubation at 37° C. for 6 days. Afterwards the medium containing the drug is removed, the cells are centrifuged in fresh medium or phosphate-buffered saline (pH 7.4). A tetrazolium dye, […]-2,5-diphenyl tetrazolium (MTT), is then added. (Mossman, T., J Immunol 65:55-63, 1983.) This dye forms a colored formazan product upon activation by mitochondrial reductases in viable cells. Typically, the formazan product is solubilized in acid-propanol or DMSO. The intensity of the color is proportional to viable cell numbers and this is quantitated by spectrophotometric absorbance at 570 nm on a micro ELISA plate reader. The results are calibrated in % control absorbance from untreated tumor cells. (Alley, et al., Cancer Res 48:589-601, 1988.) […]
Murine L-1210 Leukemia Cells were first described by Law, et al. from a female DBA/2 mouse exposed to topical methylcholanthrene. (Law, et al., J Natl Cancer Inst 10:179-192, 1949.) The cells represent a lymphocytic lineage and are highly tumorigenic in syngeneic DBA/2 mice, producing lethality typically 10-14 days after inoculation. This cell line has been used extensively to characterize the antitumor activity of chemotherapeutic agents. (Goldin, et al., Cancer Res (Cancer Chemotherapy Screening Data IX) 21:27-92, 1961.) The L-1210 cells have a model 40-41 chromosomes and a very high plating efficiency in suspension cultures in vitro.
(§1) *Drug continuously present for 8 days; IC50 measured by MTT dye

[2] = test system: L-1210 MDR leukemia cells; assay: MTT growth inhibition, multidrug-resistant L-1210 leukemia cells; type: cell-based, mouse; conditions: for Fold Resistance of IC50 's (MDR/S): L-1210 MDR vs sensitive, 11520 min; for IC50: MDR L-1210, drug continuously present 8 days
Protocol: (§2) Tumors are disaggregated into single cell suspensions using mechanical, hypoosmotic, and/or enzymatic (trypsin) methods. The cells are plated at a concentration of 3-5×10^4 per […] well into plastic 96-well plates. Growth medium containing 5-10% (vol/vol) heat-inactivated fetal bovine serum and penicillin/streptomycin (both […]) are added prior to incubation at 37° C. for 6 days. Afterwards the medium containing the drug is removed, the cells are centrifuged in fresh medium or phosphate-buffered saline (pH 7.4). A tetrazolium dye, […]-2,5-diphenyl tetrazolium (MTT), is then added. (Mossman, T., J Immunol 65:55-63, 1983.) This dye forms a colored formazan product upon activation by mitochondrial reductases in viable cells. Typically, the formazan product is solubilized in acid-propanol or DMSO. The intensity of the color is proportional to viable cell numbers and this is quantitated by spectrophotometric absorbance at 570 nm on a micro ELISA plate reader. The results are calibrated in % control absorbance from untreated tumor cells. (Alley, et al., Cancer Res 48:589-601, 1988.)
In addition, the imexon analogs have also been tested in a multidrug-resistant (MDR) mouse L-1210 leukemia cell line.
L-1210 MDR Cells represent a multidrug-resistant cell line developed for resistance to the alkylating agent mitomycin C. (Dorr, et al., Biochem Pharmacol 36(19):3115-3120, 1987.) This cell line has the same general growth characteristics of the parental line, but is cross-resistant to numerous natural-product based anticancer agents. This includes anthracyclines such as doxorubicin (Adriamycin®) and vinca alkaloids such as vincristine or vinblastine.
as §1

[3] = test system: MCF-7 breast cancer cells (sens.); assay: In vitro antitumor activity, MCF-7 breast (sensitive); type: cell-based; conditions: Homo sapiens, MCF7
From the text: (§3) 1) in vitro tumor cell viability assays using MTT and SRB dye reaction endpoints.
(§4) Sulforhodamine B (SRB) Assay for Adherent Tumor Cells
(§5) Sulforhodamine B (SRB) is a protein binding aminoxanthene dye with two sulfonic acid groups. (Lillie, R. D., H. J. Conn's Biological Stains, 9th Ed., Baltimore; Williams & Wilkins, 1977.) It quantitates whole cell protein content by the intensity of dye staining and relates this to the number of viable cells. […] The SRB assay is used for cells which normally adhere to surfaces (in this case plastic culture flasks or petri dishes) as part of their requirement for growth and division in vitro. The SRB assay is currently used by the National Cancer Institute in the anticancer drug screening program. (Skehan, et al., J Natl Cancer Inst 82:1107-1112, 1990; Rubinstein, et al., J Natl Cancer Inst 82:1113-1118, 1990.) Methodologic comparisons have shown that SRB results are linear for the number of tumor cells over a 100-fold range, and for protein content determined by a modified Lowry method or Standard Bradford (Bradford, M., Anal Biochem 72:248-254, 1976) methods. […] (Lillie, R. D., H. J. Conn's Biological Stains, 9th Ed., Baltimore; Williams & Wilkins, 1977.)
(§6) Cell cultures of 10^3 -10^7 cells growing in 96-well plastic microtiter plates are fixed with 50% trichloroacetic acid (TCA) for 30 minutes at 4° C. The cells are then stained with 0.4% (w/v) sulforhodamine B (SRB) dissolved in 1% acetic acid. Unbound dye is removed by 4 washes with 1% acetic acid, and protein-bound dye is extracted with 10 mM unbuffered Tris® base [tris(hydroxymethyl)aminomethane]. The optical density (OD) of this extracted solution is measured at […] in a microtiter plate ultraviolet absorbance detector. Cell viability is expressed as percent of control by dividing the optical densities and multiplying the result by 100.
(§7) Microculture Tetrazolium (MTT) Assay for Tumor Cells
as §2
(§8) Table 3 gives the potencies of the new aziridine-1-carboxamides in a panel of human and murine tumor cells in culture. The tumor cell lines in this table are selected to represent a range of histological and growth phenotypes. Their characteristics are described below.
1.1 MCF-7 Breast Cancer: The parental (sensitive) MCF-7 breast cancer is an estrogen-dependent adenocarcinoma originally derived from a pleural effusion in a person with advanced metastatic breast cancer. (Soule, et al., J Natl Cancer Inst 51:1409-1416, 1973.)

[4] = test system: A-549 lung cancer cells; assay: In vitro antitumor activity, A-549 lung; type: cell-based; conditions: Homo sapiens, A549
From the text: as §3, §4, §5, §6, §7, §2, §8
3.0 A-549 Human Lung Cancer is an adenocarcinoma type of non-small cell lung cancer (NSCLC). It was established by Girard, et al. from a fresh tumor specimen obtained from a person with advanced lung cancer. (Girard, et al., J Natl Cancer Inst 51(5):1417-1423, 1973.) It has 5.6% plating efficiency (colony formation) on agar-coated plates, 66 modal chromosome number and grows rapidly when injected subcutaneously, forming acinar pattern tumors in immunodeficient mice. […]

[5] = Mus musculus, L1210, 192 h, read-out: IC50

SMILES: CNC(=O)N1CC1C#N (stereo not drawn) [AMP 403, 2-Cyanoaziridine-1-(N-methyl)carboxamide]
- IC50 [1, 5]: 1.1 µg/mL (≈ 8.79 µM)
- Fold Resistance of IC50 's (MDR/S) [2]: 2.5
- IC50 [2, 5]: 2.7 µg/mL (≈ 21.6 µM)
- IC50 [3]: 3.3 µg/mL (≈ 26.4 µM)

SMILES: N#CC1CN1C(=O)Nc1ccccc1 (stereo not drawn) [AMP 404, 2-Cyanoaziridine-1-(N-phenyl)carboxamide]
- IC50 [1, 5]: 0.2 µg/mL (≈ 1.07 µM)
- Fold Resistance of IC50 's (MDR/S) [2]: 10.5
- IC50 [2, 5]: 2.1 µg/mL (≈ 11.2 µM)
- IC50 [3]: 0.5 µg/mL (≈ 2.67 µM)
- IC50 [4]: 1.6 µg/mL (≈ 8.55 µM)

SMILES: CCNC(=O)N1CC1C#N (stereo not drawn) [AMP 406, 2-Cyanoaziridine-1-(N-ethyl)carboxamide]
- IC50 [1, 5]: 2 µg/mL (≈ 14.4 µM)
- Fold Resistance of IC50 's (MDR/S) [2]: 1.0
- IC50 [2, 5]: 2 µg/mL (≈ 14.4 µM)
- IC50 [3]: 4 µg/mL (≈ 28.7 µM)
- IC50 [4]: 2.5 µg/mL (≈ 18 µM)

SMILES: N#CC1CN1C(=O)Nc1ccc(Cl)cc1Cl (stereo not drawn) [AMP 407, 2-Cyanoaziridine-1-[N-(2,4-dichlorophenyl)]carboxamide]
- IC50 [1, 5]: 52.3 µg/mL (≈ 204 µM)
- Fold Resistance of IC50 's (MDR/S) [2]: 0.16
- IC50 [2, 5]: 8.4 µg/mL (≈ 32.8 µM)

SMILES: CC(C)(C)NC(=O)N1CC1C#N (stereo not drawn) [AMP 410, 2-Cyanoaziridine-1-(N-t-butyl)carboxamide]
- IC50 [1, 5]: 22 µg/mL (≈ 132 µM)
- Fold Resistance of IC50 's (MDR/S) [2]: 1.4
- IC50 [2, 5]: 30.7 µg/mL (≈ 184 µM)
- IC50 [3]: > 10 µg/mL
- IC50 [4]: 33 µg/mL (≈ 197 µM)

SMILES: N#CC1CN1C(=O)NCc1ccccc1 (stereo not drawn) [AMP 412, 2-Cyanoaziridine-1-(N-benzyl)carboxamide]
- IC50 [1, 5]: 0.8 µg/mL (≈ 3.98 µM)
- Fold Resistance of IC50 's (MDR/S) [2]: 2.6
- IC50 [2, 5]: 2.1 µg/mL (≈ 10.4 µM)
- IC50 [3]: 1.5 µg/mL (≈ 7.45 µM)
- IC50 [4]: 1.5 µg/mL (≈ 7.45 µM)

SMILES: N#CC1CN1C(=O)NC1CCCCC1 (stereo not drawn) [AMP 413, 2-Cyanoaziridine-1-(N-cyclohexyl)carboxamide]
- IC50 [1, 5]: 1.4 µg/mL (≈ 7.24 µM)
- Fold Resistance of IC50 's (MDR/S) [2]: 2.2
- IC50 [2, 5]: 3.1 µg/mL (≈ 16 µM)
- IC50 [3]: 2.5 µg/mL (≈ 12.9 µM)
- IC50 [4]: 1.9 µg/mL (≈ 9.83 µM)

SMILES: CCCCNC(=O)N1CC1C#N (stereo not drawn) [AMP 414, 2-Cyanoaziridine-1-(N-butyl)carboxamide]
- IC50 [1, 5]: 2 µg/mL (≈ 12 µM)
- Fold Resistance of IC50 's (MDR/S) [2]: 1.0
- IC50 [2, 5]: 2 µg/mL (≈ 12 µM)

SMILES: N#CC1CN1C(=O)Nc1ccc(F)cc1 (stereo not drawn) [AMP 415, 2-Cyanoaziridine-1-[N-(4-fluorophenyl)]carboxamide]
- IC50 [1, 5]: 1.5 µg/mL (≈ 7.31 µM)
- Fold Resistance of IC50 's (MDR/S) [2]: 0.8
- IC50 [2, 5]: 1.2 µg/mL (≈ 5.85 µM)
- IC50 [3]: 0.4 µg/mL (≈ 1.95 µM)
- IC50 [4]: 1.3 µg/mL (≈ 6.34 µM)

SMILES: N#CC1CN1C(=O)Nc1ccc(C(F)(F)F)cc1 (stereo not drawn) [AMP 416, 2-Cyanoaziridine-1-[N-(4-trifluorophenyl)]carboxamide]
- IC50 [1, 5]: 2 µg/mL (≈ 7.84 µM)
- Fold Resistance of IC50 's (MDR/S) [2]: 0.9
- IC50 [2, 5]: 1.8 µg/mL (≈ 7.05 µM)
- IC50 [3]: 0.4 µg/mL (≈ 1.57 µM)
- IC50 [4]: 1.1 µg/mL (≈ 4.31 µM)

SMILES: N#CC1CN1C(=O)Nc1ccc([N+](=O)[O-])cc1 (stereo not drawn) [AMP 417, 2-Cyanoaziridine-1-[N-(4-nitrophenyl)]carboxamide]
- IC50 [1, 5]: 0.6 µg/mL (≈ 2.58 µM)
- Fold Resistance of IC50 's (MDR/S) [2]: 1.0
- IC50 [2, 5]: 0.6 µg/mL (≈ 2.58 µM)

SMILES: CCOC(=O)c1ccc(NC(=O)N2CC2C#N)cc1 (stereo not drawn) [AMP 419, 2-Cyanoaziridine-1-[N-(4-ethoxycarbonylphenyl)]carboxamide]
- IC50 [1, 5]: 2.5 µg/mL (≈ 9.64 µM)
- Fold Resistance of IC50 's (MDR/S) [2]: 1.2
- IC50 [2, 5]: 3 µg/mL (≈ 11.6 µM)
- IC50 [4]: 1.5 µg/mL (≈ 5.79 µM)

SMILES: CCOC(=O)CNC(=O)N1CC1C#N (stereo not drawn) [AMP 420, 2-Cyanoaziridine-1-[N-(ethoxycarbonyl)methyl]carboxamide]
- IC50 [1, 5]: 2.5 µg/mL (≈ 12.7 µM)
- Fold Resistance of IC50 's (MDR/S) [2]: 1.0
- IC50 [2, 5]: 2.5 µg/mL (≈ 12.7 µM)

SMILES: N#CC1CN1C(=O)Nc1cccnc1 (stereo not drawn) [AMP 421, 2-Cyanoaziridine-1-[N-(3-pyridyl)]carboxamide]
- IC50 [1, 5]: 2.3 µg/mL (≈ 12.2 µM)
- Fold Resistance of IC50 's (MDR/S) [2]: 0.9
- IC50 [2, 5]: 2.1 µg/mL (≈ 11.2 µM)

SMILES: N#CC1CN1C(=O)Nc1ccc(S(N)(=O)=O)cc1 (stereo not drawn) [AMP 422, 2-Cyanoaziridine-1-[N-(4-sulfamylphenyl)]carboxamide]
- IC50 [1, 5]: > 10 µg/mL
- IC50 [2, 5]: > 10 µg/mL

SMILES: N#CC1CN1C(=O)Nc1cccc2ccccc12 (stereo not drawn) [AMP 423, 2-Cyanoaziridine-1-[N-(1-naphthyl)]carboxamide]
- IC50 [1, 5]: 1.7 µg/mL (≈ 7.17 µM)
- Fold Resistance of IC50 's (MDR/S) [2]: 0.4
- IC50 [2, 5]: 0.64 µg/mL (≈ 2.7 µM)

SMILES: CC(=O)Oc1ccccc1NC(=O)N1CC1C#N (stereo not drawn) [AMP 424, 2-Cyanoaziridine-1-[N-(2-acetoxyphenyl)]carboxamide]
- IC50 [1]: > 10 µg/mL
- Fold Resistance of IC50 's (MDR/S) [2]: 1.0
- IC50 [2]: > 10 µg/mL

SMILES: CC(=O)c1cccc(NC(=O)N2CC2C#N)c1 (stereo not drawn) [AMP 425, 2-Cyanoaziridine-1-[N-(3-acetylphenyl)]carboxamide]
- IC50 [1, 5]: 2.2 µg/mL (≈ 9.6 µM)
- Fold Resistance of IC50 's (MDR/S) [2]: 0.8
- IC50 [2, 5]: 1.8 µg/mL (≈ 7.85 µM)
